# Read-outs that look alike come from different tables or passages of the source.
# Columns and labels:
# CAMK2A (CaMKII alpha) = target: T1, CAMK2A (CaMKII alpha) (Homo sapiens, UniProt Q9UQM7); assay: Z'-LYTE kinase panel; assay type: biochemical
# T1 construct: purchased ThermoFisher (SelectScreen, Z'-LYTE)
# Outline: (§1)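 Percentage inhibition comes from a one-concentration (10 µM) Z′-LYTE screen run under standard protocol over 225 panel kinases.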
# GRK4 = target: T2, GRK4 (Homo sapiens, UniProt P32298); assay: Z'-LYTE kinase panel; assay type: biochemical
# T2 construct: purchased ThermoFisher (SelectScreen, Z'-LYTE)
# Outline: as §1
# MAP4K4 (HGK) = target: T3, MAP4K4 (HGK) (Homo sapiens, UniProt O95819); assay: Z'-LYTE kinase panel; assay type: biochemical
# T3 construct: purchased ThermoFisher (SelectScreen, Z'-LYTE)
# Outline: as §1
# PAK3 = target: T4, PAK3 (Homo sapiens, UniProt O75914); assay: Z'-LYTE kinase panel; assay type: biochemical
# T4 construct: purchased ThermoFisher (SelectScreen, Z'-LYTE)
# Outline: as §1
# recombinant human ERK5 = target: T5, recombinant human ERK5 (Homo sapiens, UniProt Q13164); assay: TR-FRET (LANCE Ultra) biochemical assay of ERK5 kinase activity
# T5 construct: Catalytically active kinase domain of recombinant human ERK5 enzyme was purchased from Carna Biosciences; purchased Carna Biosciences
# Protocol: Catalytically active kinase domain of recombinant human ERK5 enzyme was purchased from Carna Biosciences. […] The inhibitory potency of compounds against ERK5 was evaluated using the LANCE Ultra technology from PerkinElmer according to the manufacturer’s instructions. Briefly, 3 µl of different concentrations of ATP and 100 nM ULight-eIF4E-binding protein 1 (Thr37/46) peptide (Perkin-Elmer catalogue No. TRF0128) were incubated in the presence of serially diluted compound or DMSO control at room temperature in 384-well Greiner white polystyrene assay plates. The reaction was initiated by the addition of 3 µl of 10 nM kinase. The assay buffer consisted of 1 mM DTT, 10 mM MgCl2, 1 mM EGTA, 0.01%(v/v) Tween 20 in 50 mM HEPES pH 7.5. After 60 min incubation, the reaction was stopped by the addition of 6 µl stop/detection reagent mixture consisting of 20 mM EDTA and 4 nM Eu-anti-phospho-eIF4E-binding protein 1 (Thr37/46) antibody (PerkinElmer catalogue No. TRF0216) diluted in detection buffer. The plates were incubated for 1 h before the fluorescence was measured at 615 and 665 nm with an excitation wavelength of 320 nm using an EnVision Multilabel Reader from Perkin-Elmer in time-resolved fluorescence resonance energy transfer (TR-FRET) mode. The calculated signal ratio at 665/615 nm is proportional to the kinase activity. The concentration of compound producing 50% inhibition of the kinase activity (IC50) was calculated by using GraphPad Prism to fit the data to a symmetrical sigmoidal curve.
# [1] = tested on: 225 kinases in the ThermoFisher standard kinase panel; assay: Kinase-panel activity screen, whole panel; assay type: biochemical; conditions: 10 µM compound; for Kinase selectivity profile in words: panel of 225 kinases
# Protocol: Compounds 2, 3 and 5 were tested for activity against the 225 kinases in the ThermoFisher standard kinase panel. The standard Z′-LYTE assay protocol (ThermoFisher) was used to measure the percentage inhibition at 10 µM compound concentration (details are provided in the supporting information).
# ERK5 signalling = tested on: ERK5 signalling; set-up: method as in Gavine et al., 2015; conditions: HEK293 cell line stably co-expressing MEK5CA and ERK5; ref Gavine et al., 2015; cited from earlier work
# [2] = TR-FRET enzymatic assay, phosphorylated ERK5, read-out: ERK5 IC50
# T3 sequence (O95819 whole entry): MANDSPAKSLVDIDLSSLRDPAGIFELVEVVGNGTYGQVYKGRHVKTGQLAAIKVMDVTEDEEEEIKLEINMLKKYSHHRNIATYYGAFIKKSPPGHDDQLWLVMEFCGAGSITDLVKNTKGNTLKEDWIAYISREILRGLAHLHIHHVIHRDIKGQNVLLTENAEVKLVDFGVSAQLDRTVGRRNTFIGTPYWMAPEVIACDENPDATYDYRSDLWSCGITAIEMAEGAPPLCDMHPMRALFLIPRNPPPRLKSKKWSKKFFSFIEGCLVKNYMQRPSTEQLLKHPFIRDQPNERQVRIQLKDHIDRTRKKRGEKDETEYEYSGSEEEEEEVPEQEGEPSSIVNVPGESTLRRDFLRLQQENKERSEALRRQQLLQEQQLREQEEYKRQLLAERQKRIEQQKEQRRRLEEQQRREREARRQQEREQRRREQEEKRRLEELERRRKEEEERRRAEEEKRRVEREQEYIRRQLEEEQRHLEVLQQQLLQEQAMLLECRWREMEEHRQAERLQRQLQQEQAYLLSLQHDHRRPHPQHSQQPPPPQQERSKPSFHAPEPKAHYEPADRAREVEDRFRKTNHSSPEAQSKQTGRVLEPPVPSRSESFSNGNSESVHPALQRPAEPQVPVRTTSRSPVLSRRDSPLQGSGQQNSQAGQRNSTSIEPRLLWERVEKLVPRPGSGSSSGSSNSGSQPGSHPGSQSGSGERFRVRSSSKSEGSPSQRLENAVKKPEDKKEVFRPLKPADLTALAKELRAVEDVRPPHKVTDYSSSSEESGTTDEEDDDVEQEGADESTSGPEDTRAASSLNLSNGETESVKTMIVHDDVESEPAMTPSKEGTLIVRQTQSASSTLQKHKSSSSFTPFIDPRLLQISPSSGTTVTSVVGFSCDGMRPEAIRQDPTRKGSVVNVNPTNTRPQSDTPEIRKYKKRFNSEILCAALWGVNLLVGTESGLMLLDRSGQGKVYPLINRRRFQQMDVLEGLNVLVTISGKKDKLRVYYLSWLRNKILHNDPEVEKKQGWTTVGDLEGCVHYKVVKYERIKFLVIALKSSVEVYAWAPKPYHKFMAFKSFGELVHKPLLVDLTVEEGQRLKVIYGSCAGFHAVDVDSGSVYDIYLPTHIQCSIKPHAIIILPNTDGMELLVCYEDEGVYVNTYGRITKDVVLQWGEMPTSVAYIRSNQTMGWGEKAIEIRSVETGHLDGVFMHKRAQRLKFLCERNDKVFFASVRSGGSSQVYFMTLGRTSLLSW
# T4 sequence (O75914 whole entry): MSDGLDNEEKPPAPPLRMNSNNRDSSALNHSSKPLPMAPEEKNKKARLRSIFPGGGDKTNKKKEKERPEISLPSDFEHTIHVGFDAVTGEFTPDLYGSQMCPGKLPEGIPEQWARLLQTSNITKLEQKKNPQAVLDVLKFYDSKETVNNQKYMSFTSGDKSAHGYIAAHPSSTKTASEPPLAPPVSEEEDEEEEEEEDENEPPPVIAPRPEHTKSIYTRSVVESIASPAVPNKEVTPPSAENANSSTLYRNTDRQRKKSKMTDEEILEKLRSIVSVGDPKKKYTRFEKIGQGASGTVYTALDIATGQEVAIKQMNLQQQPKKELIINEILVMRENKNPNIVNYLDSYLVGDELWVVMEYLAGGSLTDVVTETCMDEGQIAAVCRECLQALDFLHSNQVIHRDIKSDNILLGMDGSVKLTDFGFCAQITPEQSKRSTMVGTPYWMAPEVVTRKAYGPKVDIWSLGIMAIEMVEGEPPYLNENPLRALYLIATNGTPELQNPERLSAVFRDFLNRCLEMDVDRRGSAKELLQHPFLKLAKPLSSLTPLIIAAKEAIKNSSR
# T5 sequence (Q13164 55-347 limits assumed): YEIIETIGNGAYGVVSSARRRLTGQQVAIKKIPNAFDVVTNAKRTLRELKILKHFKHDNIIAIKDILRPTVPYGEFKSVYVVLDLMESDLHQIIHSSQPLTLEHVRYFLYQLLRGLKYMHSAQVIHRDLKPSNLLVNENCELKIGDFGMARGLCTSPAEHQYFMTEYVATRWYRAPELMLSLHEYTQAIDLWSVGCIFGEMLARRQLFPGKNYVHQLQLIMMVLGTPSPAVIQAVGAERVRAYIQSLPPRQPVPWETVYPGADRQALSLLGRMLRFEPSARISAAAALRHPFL
# T2 sequence (P32298 whole entry): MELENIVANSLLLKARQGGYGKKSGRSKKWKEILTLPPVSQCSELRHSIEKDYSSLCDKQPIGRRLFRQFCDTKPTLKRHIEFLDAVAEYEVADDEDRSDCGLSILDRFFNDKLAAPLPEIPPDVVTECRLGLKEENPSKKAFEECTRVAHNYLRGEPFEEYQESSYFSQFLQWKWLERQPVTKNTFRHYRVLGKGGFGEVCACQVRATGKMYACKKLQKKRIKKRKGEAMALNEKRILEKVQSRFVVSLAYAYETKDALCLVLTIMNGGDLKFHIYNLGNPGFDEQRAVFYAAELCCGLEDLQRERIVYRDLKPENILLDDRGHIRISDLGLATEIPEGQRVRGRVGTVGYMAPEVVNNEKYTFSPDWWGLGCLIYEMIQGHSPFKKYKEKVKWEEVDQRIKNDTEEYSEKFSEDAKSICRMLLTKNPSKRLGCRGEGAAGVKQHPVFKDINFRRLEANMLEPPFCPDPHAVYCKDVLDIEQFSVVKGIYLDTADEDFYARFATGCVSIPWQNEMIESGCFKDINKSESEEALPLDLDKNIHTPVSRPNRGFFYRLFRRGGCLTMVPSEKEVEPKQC
compound,measurement,setting,value
Cc1ncc(-c2nc(Nc3ccc(C(=O)NCCN4CCCCC4)cc3)ncc2F)n1C(C)C [Compound 3],inhibition at 10 µM,CAMK2A (CaMKII alpha),89%
same,inhibition at 10 µM,GRK4,41%
same,inhibition at 10 µM,MAP4K4 (HGK),84%
same,inhibition at 10 µM,PAK3,37%
same,IC50,recombinant human ERK5; [2],0.042 µM
same,Kinase selectivity profile in words,[1],most promiscuous
Cc1cc(Nc2nc(N)nn2C(=O)NC(C)C)ccc1Cl [Compound 5],inhibition at 10 µM,CAMK2A (CaMKII alpha),-10%
same,inhibition at 10 µM,GRK4,7%
same,inhibition at 10 µM,MAP4K4 (HGK),-6%
same,inhibition at 10 µM,PAK3,-12%
same,Mode of ERK5 inhibition with respect to ATP,"recombinant human ERK5; ATP-competition study, IC50 curves at different ATP concentrations",ATP-competitive
same,IC50,"recombinant human ERK5; ERK5 IC50 at [ATP] 20 µM, [ATP] 20 µM",2.3 µM
same,IC50,"recombinant human ERK5; ERK5 IC50 at [ATP] 40 µM, [ATP] 40 µM",2.9 µM
same,IC50,"recombinant human ERK5; ERK5 IC50 at [ATP] 60 µM, [ATP] 60 µM",3.1 µM
same,IC50,"recombinant human ERK5; ERK5 IC50 at [ATP] 200 µM, [ATP] 200 µM",4.1 µM
same,IC50,"recombinant human ERK5; ERK5 IC50 at [ATP] 1000 µM, [ATP] 1000 µM",9.9 µM
same,IC50,"recombinant human ERK5; ERK5 IC50 at [ATP] 2000 µM, [ATP] 2000 µM",14.8 µM
same,IC50,recombinant human ERK5; [2],2.3 µM
same,IC50,"recombinant human ERK5; [ATP] 80 µM, read-out: ERK5 IC50 at [ATP] 80 µM",3.4 µM
same,IC50,"recombinant human ERK5; [ATP] 500 µM, read-out: ERK5 IC50 at [ATP] 500 µM",6.3 µM
same,Number of kinases with significant activity (greater than 80% inhibition) out of the 225 tested,[1],five
same,Kinase selectivity profile in words,[1],most selective
"XMD8-92 [Compound 2, reference compound]",CAMK2A (CaMKII alpha) % Inhibition,"CAMK2A (CaMKII alpha); 10 µM compound, ATP Km app",59%
same,GRK4 % Inhibition,"GRK4; 10 µM compound, ATP Km app",93%
same,MAP4K4 (HGK) % Inhibition,"MAP4K4 (HGK); 10 µM compound, ATP Km app",84%
same,PAK3 % Inhibition,"PAK3; 10 µM compound, ATP Km app",71%
same,Block of downstream ERK5 signalling,ERK5 signalling,able to block downstream ERK5 signalling
